What was measured:
CDK9/CycT1 = target: T1, CDK9/CycT1 (Homo sapiens, UniProt P50750); assay: CDK9/CycT1 kinase assay (TR-FRET); assay type: biochemical; conditions: Method 1, 10 μM ATP
T1 construct: Recombinant full-length His-tagged human CDK9 and CycT1; His; purchased Invitrogen PV4131; host or cells: insect cells
Text: 1. CDK9/CycT1 Kinase Assay:
CDK9/CycT1-inhibitory activity of compounds of the present invention was quantified employing the CDK9/CycT1 TR-FRET assay as described in the following paragraphs:
Recombinant full-length His-tagged human CDK9 and CycT1, expressed in insect cells and purified by Ni-NTA affinity chromatography, were purchased from Invitrogen (Cat. No PV4131). As substrate for the kinase reaction biotinylated peptide biotin-Ttds-[…] (C-terminus in amid form) was used which can be purchased e.g. form the company JERINI Peptide Technologies (Berlin, Germany). For the assay 50 nl of a 100fold concentrated solution of the test compound in DMSO was pipetted into a black low volume 384well microtiter plate (Greiner Bio-One, Frickenhausen, Germany), 2 μl of a solution of CDK9/CycT1 in aqueous assay buffer [50 mM Tris/HCl pH 8.0, 10 mM MgCl2, 1.0 mM dithiothreitol, 0.1 mM sodium ortho-vanadate, 0.01% (v/v) Nonidet-P40 (Sigma)] were added and the mixture was incubated for 15 min at 22° C. to allow pre-binding of the test compounds to the enzyme before the start of the kinase reaction. Then the kinase reaction was started by the addition of 3 μl of a solution of adenosine-tri-phosphate (ATP, 16.7 μM=>final conc. in the 5 μl assay volume is 10 μM) and substrate (1.67 μM=>final conc. in the 5 μl assay volume is 1 μM) in assay buffer and the resulting mixture was incubated for a reaction time of 25 min at 22° C. The concentration of CDK9/CycT1 was adjusted depending of the activity of the enzyme lot and was chosen appropriate to have the assay in the linear range, typical concentrations were in the range of 1 μg/ml. The reaction was stopped by the addition of 5 μl of a solution of TR-FRET detection reagents (0.2 μM streptavidine-XL665 [Cisbio Bioassays, Codolet, France] and 1 nM anti-RB(pSer807/pSer811)-antibody from BD Pharmingen [#558389] and 1.2 nM LANCE EU-W1024 labeled anti-mouse IgG antibody [Perkin-Elmer, product no. AD0077]) in an aqueous EDTA-solution (100 mM EDTA, 0.2% (w/v) bovine serum albumin in 100 mM HEPES/NaOH pH 7.0).
(§1) The resulting mixture was incubated 1 h at 22° C. to allow the formation of complex between the phosphorylated biotinylated peptide and the detection reagents. Subsequently the amount of phosphorylated substrate was evaluated by measurement of the resonance energy transfer from the Eu-chelate to the streptavidine-XL. Therefore, the fluorescence emissions at 620 nm and 665 nm after excitation at 350 nm was measured in a HTRF reader, e.g. a Rubystar (BMG Labtechnologies, Offenburg, Germany) or a Viewlux (Perkin-Elmer). The ratio of the emissions at 665 nm and at 622 nm was taken as the measure for the amount of phosphorylated substrate.

CDK2/CycE = target: T2, CDK2/CycE (Homo sapiens, UniProt P24941); assay: CDK2/CycE kinase assay (TR-FRET); assay type: biochemical; conditions: Method 2, 10 μM ATP
T2 construct: GST; purchased ProQinase GmbH (Freiburg, Germany); host or cells: insect cells (Sf9)
Text: 2. CDK2/CycE Kinase Assay:
CDK2/CycE-inhibitory activity of compounds of the present invention was quantified employing the CDK2/CycE TR-FRET assay as described in the following paragraphs:
Recombinant fusion proteins of GST and human CDK2 and of GST and human CycE, expressed in insect cells (Sf9) and purified by Glutathion-Sepharose affinity chromatography, were purchased from ProQinase GmbH (Freiburg, Germany). As substrate for the kinase reaction biotinylated peptide biotin-Ttds-[…] (C-terminus in amid form) was used which can be purchased e.g. form the company JERINI Peptide Technologies (Berlin, Germany).
For the assay 50 nl of a 100fold concentrated solution of the test compound in DMSO was pipetted into a black low volume 384well microtiter plate (Greiner Bio-One, Frickenhausen, Germany), 2 μl of a solution of CDK2/CycE in aqueous assay buffer [50 mM Tris/HCl pH 8.0, 10 mM MgCl2, 1.0 mM dithiothreitol, 0.1 mM sodium ortho-vanadate, 0.01% (v/v) Nonidet-P40 (Sigma)] were added and the mixture was incubated for […] at 22° C. to allow pre-binding of the test compounds to the enzyme before the start of the kinase reaction. Then the kinase reaction was started by the addition of 3 μl of a solution of adenosine-tri-phosphate (ATP, 16.7 μM=>final conc. in the 5 it assay volume is 10 μM) and substrate (1.25 μM=>final conc. in the 5 it assay volume is 0.75 μM) in assay buffer and the resulting mixture was incubated for a reaction time of […] at 22° C. The concentration of CDK2/CycE was adjusted depending of the activity of the enzyme lot and was chosen appropriate to have the assay in the linear range, typical concentrations were in the range of 130 ng/ml. The reaction was stopped by the addition of 5 it of a solution of TR-FRET detection reagents (0.2 μM streptavidine-XL665 [Cisbio Bioassays, Codolet, France] and 1 nM anti-RB(pSer807/pSer811)-antibody from BD Pharmingen [#558389] and 1.2 nM LANCE EU-W1024 labeled anti-mouse IgG antibody [Perkin-Elmer, product no. AD0077]) in an aqueous EDTA-solution (100 mM EDTA, 0.2% (w/v) bovine serum albumin in 100 mM HEPES/NaOH pH 7.0).
as §1, with “TR-FRET” for “HTRF”

T1 sequence (P50750 whole entry): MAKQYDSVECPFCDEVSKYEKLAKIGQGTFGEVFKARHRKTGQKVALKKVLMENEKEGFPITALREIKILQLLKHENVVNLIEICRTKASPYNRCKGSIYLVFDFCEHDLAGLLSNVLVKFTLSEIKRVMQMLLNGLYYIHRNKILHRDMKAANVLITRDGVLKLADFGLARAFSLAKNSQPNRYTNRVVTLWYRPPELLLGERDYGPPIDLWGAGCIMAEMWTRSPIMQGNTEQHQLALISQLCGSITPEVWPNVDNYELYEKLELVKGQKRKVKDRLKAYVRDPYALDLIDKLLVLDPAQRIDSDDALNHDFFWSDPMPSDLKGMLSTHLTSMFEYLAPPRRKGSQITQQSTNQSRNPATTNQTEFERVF
T1 sequence (O60563 whole entry partner): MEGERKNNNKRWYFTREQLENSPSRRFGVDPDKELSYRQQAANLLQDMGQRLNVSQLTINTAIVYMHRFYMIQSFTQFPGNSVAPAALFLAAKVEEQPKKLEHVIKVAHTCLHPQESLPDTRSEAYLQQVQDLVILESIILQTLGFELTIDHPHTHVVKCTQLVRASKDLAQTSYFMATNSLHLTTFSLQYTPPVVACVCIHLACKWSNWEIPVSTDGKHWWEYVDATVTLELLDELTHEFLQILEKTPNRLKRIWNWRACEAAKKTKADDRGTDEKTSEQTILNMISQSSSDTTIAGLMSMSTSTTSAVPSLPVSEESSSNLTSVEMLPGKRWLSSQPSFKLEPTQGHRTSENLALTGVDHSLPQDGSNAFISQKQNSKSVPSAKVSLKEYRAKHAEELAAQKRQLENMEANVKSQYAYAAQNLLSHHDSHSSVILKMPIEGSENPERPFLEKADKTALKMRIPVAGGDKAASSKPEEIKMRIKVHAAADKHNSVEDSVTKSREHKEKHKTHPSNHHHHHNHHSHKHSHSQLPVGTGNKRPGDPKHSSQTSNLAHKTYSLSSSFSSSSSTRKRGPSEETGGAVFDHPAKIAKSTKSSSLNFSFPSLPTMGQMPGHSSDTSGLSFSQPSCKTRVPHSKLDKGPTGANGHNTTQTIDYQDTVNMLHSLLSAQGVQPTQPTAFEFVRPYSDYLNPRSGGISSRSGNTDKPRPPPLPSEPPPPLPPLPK

Row | Structure (SMILES) | IC50 (CDK9/CycT1) [µM] | IC50 (CDK2/CycE) [µM]
1 | CCOCCOc1cc(F)ccc1-c1ncnc(Nc2cccc(CS(C)(=O)=O)c2)n1 [Example 51, 4-[2-(2-Ethoxyethoxy)-4-fluorophenyl]-N-{3-[(methylsulfonyl)methyl]phenyl}-1,3,5-triazin-2-amine] | 0.08 | 9.4
2 | COc1cc(F)ccc1-c1ncnc(Nc2cccc(CS(=O)(=O)c3ccccc3)c2)n1 [Example 35, 4-(4-Fluoro-2-methoxyphenyl)-N-{3-[(phenylsulfonyl)methyl]phenyl}-1,3,5-triazin-2-amine] | 0.03 | 2.2
3 | CS(=O)(=O)Cc1cccc(Nc2ncnc(-c3ccccc3OCC(F)(F)F)n2)c1 [Example 16, N-{3-[(Methylsulfonyl)methyl]phenyl}-4-[2-(2,2,2-trifluoroethoxy)phenyl]-1,3,5-triazin-2-amine] | 0.074 | 8.3
4 | CS(=O)(=O)Cc1cccc(Nc2ncnc(-c3cc(F)ccc3OCc3ccccc3F)n2)c1 [Example 30, 4-{5-Fluoro-2-[(2-fluorobenzyl)oxy]phenyl}-N-{3-[(methylsulfonyl)methyl]phenyl}-1,3,5-triazin-2-amine] | 0.032 | 6.6
5 | CS(=O)(=O)Cc1cccc(Nc2ncnc(-c3ccc(F)cc3OC3CCC3)n2)c1 [Example 64, 4-[2-(Cyclobutyloxy)-4-fluorophenyl]-N-{3-[(methylsulfonyl)methyl]phenyl}-1,3,5-triazin-2-amine] | 0.034 | 1.8
6 | CS(=O)(=O)Cc1cccc(Nc2ncnc(-c3ccccc3OC(F)(F)F)n2)c1 [Example 7, N-{3-[(Methylsulfonyl)methyl]phenyl}-4-[2-(trifluoromethoxy)phenyl]-1,3,5-triazin-2-amine] | 0.33 | 5.4
7 | CS(=O)(=O)Cc1cccc(Nc2ncnc(-c3ccc(F)cc3OCCC3CCCCC3)n2)c1 [Example 63, 4-[2-(2-Cyclohexylethoxy)-4-fluorophenyl]-N-{3-[(methylsulfonyl)methyl]phenyl}-1,3,5-triazin-2-amine] | 0.17 | 7.4
8 | CS(=O)(=O)Cc1cccc(Nc2ncnc(-c3ccc(F)cc3OCc3ccnc(F)c3)n2)c1 [Example 82, 4-{4-Fluoro-2-[(2-fluoropyridin-4-yl)methoxy]-phenyl}-N-{3-[(methylsulfonyl)-methyl]-phenyl}-1,3,5-triazin-2-amine] | 0.001 | 0.075
9 | CS(=O)(=O)Cc1cccc(Nc2ncnc(-c3ccc(F)cc3OCC3(F)CCCCC3)n2)c1 [Example 66, 4-{4-Fluoro-2-[(1-fluorocyclohexyl)-methoxy]phenyl}-N-{3-[(methylsulfonyl)-methyl]phenyl}-1,3,5-triazin-2-amine] | 0.022 | 6.8
10 | CS(=O)(=O)Cc1cccc(Nc2ncnc(-c3ccc(F)cc3OC3CCCC3)n2)c1 [Example 65, 4-[2-(Cyclopentyloxy)-4-fluorophenyl]-N-{3-[(methylsulfonyl)methyl]phenyl}-1,3,5-triazin-2-amine] | 0.036 | 2.3
11 | CS(=O)(=O)Cc1cccc(Nc2ncnc(-c3cccc4c3OC(F)(F)O4)n2)c1 [Example 6, 4-(2,2-Difluoro-1,3-benzodioxol-4-yl)-N-{3-[(methylsulfonyl)methyl]phenyl}-1,3,5-triazin-2-amine] | 0.033 | 1.3
12 | CS(=O)(=O)Cc1cccc(Nc2ncnc(-c3ccccc3OCc3ccccc3Cl)n2)c1 [Example 27, 4-{2-[(2-Chlorobenzyl)oxy]phenyl}-N-{3-[(methylsulfonyl)methyl]phenyl}-1,3,5-triazin-2-amine] | 0.087 | 8.8
13 | CS(=O)(=O)Cc1cccc(Nc2ncnc(-c3cc(F)ccc3OCC3CCOCC3)n2)c1 [Example 21, 4-[5-Fluoro-2-(tetrahydro-2H-pyran-4-ylmethoxy)phenyl]-N-{3-[(methylsulfonyl)methyl]phenyl}-1,3,5-triazin-2-amine] | 0.11 | 8.8

Continued, values first:

Row | IC50 (CDK9/CycT1) [µM] | IC50 (CDK2/CycE) [µM] | Structure (SMILES)
14 | 0.16 | 8.6 | COc1c(-c2ncnc(Nc3cccc(CS(C)(=O)=O)c3)n2)ccc(F)c1F [Example 2, 4-(3,4-Difluoro-2-methoxyphenyl)-N-{3-[(methylsulfonyl)methyl]phenyl}-1,3,5-triazin-2-amine]
15 | 0.025 | 2.3 | COc1cc(Cl)ccc1-c1ncnc(Nc2cccc(CS(C)(=O)=O)c2)n1 [Example 32, 4-(4-Chloro-2-methoxyphenyl)-N-{3-[(methylsulfonyl)methyl]phenyl}-1,3,5-triazin-2-amine]
16 | 0.025 | 1.4 | CC(C)Oc1cc(F)ccc1-c1ncnc(Nc2cccc(CS(C)(=O)=O)c2)n1 [Example 5, 4-[4-Fluoro-2-(propan-2-yloxy)phenyl]-N-{3-[(methylsulfonyl)methyl]phenyl}-1,3,5-triazin-2-amine]
17 | 0.11 | 8.2 | COc1ncccc1-c1ncnc(Nc2cccc(CS(C)(=O)=O)c2)n1 [Example 20, 4-(2-Methoxypyridin-3-yl)-N-{3-[(methylsulfonyl)methyl]phenyl}-1,3,5-triazin-2-amine]
18 | 0.033 | 1.3 | COc1ccc(F)cc1-c1ncnc(Nc2cccc(CS(C)(=O)=O)c2)n1 [Example 11, 4-(5-Fluoro-2-methoxyphenyl)-N-{3-[(methylsulfonyl)methyl]phenyl}-1,3,5-triazin-2-amine]
19 | 0.047 | 2 | COc1cc(F)ccc1-c1ncnc(Nc2cccc(CS(=O)(=O)C(C)(C)C)c2)n1 [Example 17, N-{3-[(tert-Butylsulfonyl)methyl]phenyl}-4-(4-fluoro-2-methoxyphenyl)-1,3,5-triazin-2-amine]
20 | 0.13 | 3.9 | CS(=O)(=O)Cc1cccc(Nc2ncnc(-c3ccc(F)cc3OC(F)F)n2)c1 [Example 15, 4-[2-(Difluoromethoxy)-4-fluorophenyl]-N-{3-[(methylsulfonyl)methyl]phenyl}-1,3,5-triazin-2-amine]
